Source: patent US20060172920A1, “Oxidised lipids as reversal agents for boronic acid drugs” (priority 2004, published 2006)
Several values for one entry are separate records, joined by “and”; a condition that tells them apart may be missing. Identical values can stand only once.

What was measured:
[1] = biological target: T1, thrombin (Homo sapiens, UniProt P00734); assay: Thrombin assay, reversal of TRI 50c inhibition (Example 10, Methods A-C); format: biochemical; settings: final concentration; TRI 50c 1 μM; Method A
Protocol: 50 μl thrombin (33.3 ng/ml in assay buffer) and 20 μl vehicle or compound solution were added to 110 μl assay buffer (100 mM Na orthophosphate (80% Na2HPO4 and 20% NaH2PO4), 200 mM NaCl, 0.5% PEG 6000, 0.02% Na azide, pH 7.5) and incubated for 5 minutes at 37° C. […] Results are expressed as percentage change in thrombin activity. […] After the incubation period 100 μl of activated HDL (Method B) was added and further incubated for 30 minutes at 37° C.

[2] = tested on: human thrombin; assay: Quenching of TRI-50b neutralising activity by N-acetyl cysteine (Method B); format: biochemical
Protocol: Method B Method as A except that the measurement was made at a single time point. The incubation period was 20 minutes with plasma samples and 1 minute with the purified lipoproteins. Results are given as the overall percentage activity relative to a control without inhibitor. If lipid peroxides are involved in the inactivation then, the addition of n-acetyl-cysteine (NAC), a powerful anti-oxidant should reduce the neutralising activity. (NAC has been used historically to mop up reactive oxygen species). […] Plasma (1 in 10 dilution in buffer A) was incubated with 1.0 mM cupric sulphate for 4 hours. Increasing concentrations of n-acetyl cysteine were then added and also to BLp (1 in 10 dilution in buffer A). The neutralisation of TRI-50b was measured by Method B (Materials and Methods). Plasma, ▪-▪, BLp ▴-▴. A reduction in neutralising activity, to approximately base-line levels was observed when increasing concentrations of NAC were added to plasma or the bovine lipoprotein fraction (FIG. 14).

[3] = biological target: T1, thrombin; assay: Ki of hydrogen peroxide-treated TRI-50b against thrombin (Dixon plots); format: biochemical; settings: after hydrogen peroxide (3.0%) 2 hours at RT
Protocol: The loss of activity of boropeptides when contacted with peroxide compounds was apparently due to the removal of the boronic acid moiety (as was observed upon treatment of TRI-50b with hydrogen peroxide). The boron provides at least four orders of binding energy to the peptide sequence because of the formation of a transition state-like adduct with the active site serine. […] 1 volume TRI-50b (15 mg/ml in DMSO) was added slowly to 10 volumes of hydrogen peroxide (3.0%) for 2 hours at RT. The Ki for inhibition of thrombin activity was carried out using Dixon plots. The initial rate of cleavage of S2302 (a chromogenic substrate for thrombin) by thrombin (28 nM) was determined at the different concentrations of substrate in the presence of varying concentrations of the oxidised inhibitor. This loss of binding energy was observed as a 20,000 fold increase in the Ki against thrombin (FIG. 15).

[4] = tested on: thrombin clotting time; assay: Example 11: TRI 50b and lipoprotein antidote in rat, thrombin clotting time; format: in vivo
Protocol: The efficacy of a new specific antidote towards the dynamic activity of TRI 50b was evaluated in a rat study (n=15) (Male and Female rats circa 250-300 g).
Male and female rats were anaesthetised and arterial blood sampling lines placed.
The antidote was prepared from a bovine lipoprotein following oxidation, ultrafiltration and Concentration.
The study was divided into three groups as follows: • TRI 50b alone at a dose of 2.0 mg/kg intravenously (0.8 ml/kg: Prepared in 25% ethanol/saline) • Antidote alone (5.0 ml/kg) • TRI 50b followed by administration of the antidote.
Blood samples were taken from an arterial line into 3.8% tri-sodium citrate and plasma prepared by centrifugation.
Dynamic activity of TRI 50b was assessed in plasma samples by measurement of the thrombin clotting time.
200 ml of Lipocell (Lipoprotein fraction, Intergen catalogue number 4505-01, Lot number WT18002) was incubated at 37° C. for 37 hours. The Lipocell was then concentrated by centrifugation. The sample contained in an Amicon Centriprep YM-3 centrifugal concentrator was spun at 3800 rpm in an IEC Centra 3C centrifuge for 30 minutes at RT. The concentrated samples were pooled and centrifuged twice more to a final volume of around 50 mls. The sample was stored at 4° C.

[5] = tested on: rat plasma; assay: Ecarin clotting time in rat plasma (Example 10, Method D); format: biochemical; settings: 10 μM; fresh rat plasma
Protocol: (§1) Ecarin was obtained from HTI (USA) whilst the normal human plasma was purchased from Precision Biologics via Alpha Laboratories (UK). Rat plasma was purchased from Harlan laboratories, UK.
(§2) TRI 50c was diluted in an assay buffer (100 mM sodium orthophoshate, 200 mM NaCl, 0.5% PEG 6000 and 0.02% sodium azide, pH 7.5) and incubated with normal human pooled or rat plasma (80% final) for 5 minutes at 37° C. Ecarin (100 μg/ml final) was added to the incubating solution. The clotting times were determined using a plate reader (Versamax, Molecular Devices Corporation) at 405 nm for up to 10 minutes at 37° C.

[6] = tested on: normal human plasma; assay: Ecarin clotting time in human plasma (Example 10, Method D); format: biochemical; settings: 1-10 μM
Protocol: as §1, §2

[7] = tested on: human thrombin; assay: Total neutralising capacity towards peptide boronates (Method C); format: biochemical; settings: for maximum number of boronate molecules destroyed by BLp: BLp in the absence of Cu2+
Protocol: Method C. 20 μl of TRI-50b dissolved in DMSO was added to 313 μl of bovine lipoprotein (diluted 1 in 10 in Buffer A, see method A above) to achieve a range of final concentrations of 164, 333, 490, 660, 820, 990, 1150, 1320 and 1480 μM, respectively. Samples were removed at timed intervals and diluted 1 in 20 with buffer A. The concentration of TRI-50b in 25 μl of this mixture was determined as described in Method A. Residual TRI-50b was determined from a standards curve. The change in concentration of TRI-50b was calculated by subtracting the residual concentration from the starting concentration.
BLp was incubated at 37° C. in the presence or absence of 1 mM cupric sulphate, Samples were taken at timed intervals and added to varying concentrations of TRI-50b up to 1.5 mM. The residual TRI-50 b was measured by Method C (Materials and Methods). —Cu^2+ […]-[…]; +Cu^2+ ▴-▴. In FIG. 10 are shown the results of an experiment in which the total mass of neutralising activity of bovine lipoprotein was determined. Increasing concentrations of TRI-50b up to 1.5 mM were added to a ten-fold dilution of the BLp fraction (OD280 nm=4.0). A rapid neutralisation of TRI-50b was observed reaching a maximum beyond which the neutralising capacity was totally exhausted. In the absence of Cu^2+, the maximum mass of TRI-50b that was neutralised was equivalent to 0.8 mM. The concentration of BLp in the mixture was 1.9 g/l or 0.0038 mM. Thus around 200 moles of TRI-50b were neutralised per mole of lipoprotein. In the presence of Cu^2+, the maximum mass of TRI-50b that was neutralised was higher and equivalent to 320 moles/mole.
A similar experiment was carried out with dilutions of plasma (FIG. 11). […] Plasma at varying dilutions was incubated at 37° C. in the presence of 1 mM cupric sulphate. Samples were taken at timed intervals and added to varying concentrations of TRI-50b up to 1.5 mM. The residual TRI-50 b was measured by Method C (Materials and Methods). 1 in 3, […]-[…]; 1 in 6, ▴-▴; 1 in 12, ▾-▾; 1 in 3 without Cu^2+, ▪-▪. […]
The low-density lipoprotein particle contains a single molecule of a 500 kDa protein and 1500 molecules of esterified cholesterol. […] Samples were taken at timed intervals and the residual TRI-50b concentration was determined by Method C (Materials and Methods).
In FIG. 13 are shown the observations made upon the neutralisation of a number of other peptide boronates by BLp added in the absence of Cu^2+, namely TRI-30, Z-D-Dpa-Pro-BoroMbg-Opin, TRI-26, Z-D-βNal-Pro-BoroIrg-Opin; TRI-142, Moc-D,L-Dpa-Pro-BoroMpg-Opinac. […] The residual concentration of boronate was determined by Method C (Materials and Methods).

[8] = stored at −80° C.; cited from earlier work
[9] = PBS pH 7.2; cited from earlier work

O=S(=O)([O-])[O-].[Cu+2] [CuSO4, copper sulphate]
concentration that began to reduce the inhibitory activity of TRI 50c [1]: greater than 50 μM

CC(=O)NC(CS)C(=O)O (stereo not shown) [NAC, n-acetyl-cysteine]
IC50 ([2]; BLp (1 in 10 dilution)): ~2000 µM
IC50 ([2]; oxidised plasma (1 in 10, 1.0 mM cupric sulphate 4 hours)): ~100 µM

COCCC[C@H](NC(=O)[C@@H]1CCCN1C(=O)[C@@H](Cc1ccccc1)NC(=O)OCc1ccccc1)B1OC(C)(C)C(C)(C)O1 [TRI 50b, Cbz-(R)-Phe-Pro-BoroMpg-OPinacol]
increase in the Ki against thrombin [3]: 20,000 fold
elevation of thrombin clotting time over base line ([4]; 2.0 mg/kg intravenously, two minutes post dose): 5.6 times base line
thrombin clotting time (TT) ([4]; 2.0 mg/kg iv, 30 minutes post dose): 36 s
time for thrombin clotting time to return to base line ([4]; 2.0 mg/kg iv, post dose): ≤ 60 min
thrombin clotting time ([4]; 2.0 mg/kg iv, two minutes post dose): 128 s and 138 s

COCCC[C@H](NC(=O)[C@@H]1CCCN1C(=O)[C@@H](Cc1ccccc1)NC(=O)OCc1ccccc1)B(O)O [TRI 50c, Cbz-(R)-Phe-(S)-Pro-(R)-Mpg-B(OH)2]
ECT [5]: approximately 215 seconds
prolongation of ECT [6]: concentration dependent prolongation

Moc-D,L-Dpa-Pro-BoroMpg-Opinac [TRI-142]
maximum number of boronate molecules destroyed by BLp [7]: around 65 moles/mole

Z-D-Dpa-Pro-BoroMbg-Opin [TRI-30]
maximum number of boronate molecules destroyed by BLp [7]: around 80 moles/mole

Z-D-βNal-Pro-BoroIrg-Opin [TRI-26]
maximum number of boronate molecules destroyed by BLp [7]: around 65 moles/mole

cholesteryl linoleate hydroperoxide
storage stability [8]: stable for at least six months
equivalence of TRI-50b neutralisation ([7]; 44 μM hydroperoxide mixed with TRI-50b): approximately 1 mole/mole
solubility in aqueous buffers [9]: < 20 µg/mL
